# In patent publication US12599592B2, “Therapeutic small molecules for treatment of pulmonary hypertension” (UNIVERSITY OF PITTSBURGH—OF THE COMMONWEALTH SYSTEM OF …, priority 2020, dated 2026):
# Tests used:
# Format in all cases: cell-based, human
# [1] = tested on: glutathionylated ISCU; assay: ISCU glutathionylation by immunoprecipitation and immunoblot in PAECs; conditions: hypoxic PAECs, BRD2889 1 mM, 24 h
# Protocol: Protein stability assay: The proteasome inhibitor MG132 (M7449, Sigma) was stored at −20° C. at a concentration of 10 mM diluted in dimethyl sulfoxide (DMSO). PAECs were exposed to MG132 ([…]) vs. DMSO vehicle control for 2 hr under hypoxia, prior to harvesting of cellular lysate for immunoblotting.
# Immunoblot and densitometry: Cells were lysed in RIPA buffer (Sigma) along with 1× protease inhibitor cocktail (Sigma). Protein lysate was resolved by gradient 4%-15% SDS-PAGE gels and transferred onto a 0.2 μm PVDF membrane (Bio-Rad). Membranes were blocked in 5% non-fat milk in 1×PBST buffer for one hour at room temperature. Later, they were incubated in the presence of the primary antibody overnight at 4° C. and then appropriate HRP-conjugated secondary antibodies (Life Technologies). […] The images were later quantified using AlphaEaseFC software (Alpha Innotech).
# Immunoprecipitation: PAECs were transfected with the indicated combinations of siRNAs by Lipofectamine 2000 (Thermo Fisher Scientific) according to the manufacturer's instructions and/or treated with BRD2889 ([…], 24 h). […] After extensive washing, the immunoprecipitated proteins were analyzed by immunoblotting with the indicated antibodies.
# [2] = tested on: C43 genes (ISCU, mTOR); EDN1, VCAM1, ICAM1; assay: RT-qPCR of Cluster 43 and proinflammatory genes in PAECs
# Protocol: In IL-6/sIL-6R+hypoxia experiments, a human recombinant IL-6/IL-6R alpha protein chimera (25 ng/ml, Millipore) was administered at 70-80% confluency for 48 h in complete media along with vehicle control (DMSO, Sigma-41639). […] The hypoxia chamber (modular incubator chamber) was obtained from Billups-Rothenberg Inc. (Del Mar, Calif) and placed in regulated CO2 incubator at 37° C.
# RT-qPCR analysis: Cells were lysis in 1 ml of QiaZol reagent (Qiagen). Total RNA content was extracted using the RNeasy kit (Qiagen), according to the manufacturer's instructions. Total RNA concentration was determined using a BioTek Synergy multimode plate reader. Messenger RNAs were reverse transcribed to generate cDNA using the Multiscript RT kit (Thermo Fisher Scientific). cDNA for specific gene targets was amplified and quantified via fluorescently-labeled Taqman primer sets and Taqman fast advanced master mix (Thermo Fisher Scientific) using an Applied Biosystems QuantStudio 6 Flex Real-Time PCR System.
# [3] = tested on: mitochondrial Complex I; assay: Mitochondrial Complex I activity in PASMCs; conditions: IL-6/sIL-6R + hypoxia
# Protocol: (§1) In IL-6/sIL-6R+hypoxia experiments, a human recombinant IL-6/IL-6R alpha protein chimera (25 ng/ml, Millipore) was administered at 70-80% confluency for 48 h in complete media along with vehicle control (DMSO, Sigma-41639). BRD2889 (1 uM) vs. vehicle control were added, as indicated, and placed into a hypoxia chamber for 24 h. The hypoxia chamber (modular incubator chamber) was obtained from Billups-Rothenberg Inc. (Del Mar, Calif) and placed in regulated CO2 incubator at 37° C.
# Mitochondria isolation: Mitochondrial fraction from cultured PAECs with drug and siGSTP1 using the Mammalian Mitochondria Isolation Kit for Tissue & Cultured Cells (Biovision, Inc.) according to the manufacturer's instructions.
# Measurement of mitochondrial complex activities: Complex I activity of isolated mitochondria were measured using Complex I Enzyme Activity Microplate assay kit (Abcam, ab109721) according to the manufacturer's protocol. These enzymes were captured within the wells of the microplate coated by the corresponding complex enzyme antibody, and activities were detected colorimetrically.
# [4] = tested on: PASMCs; assay: BrdU proliferation in PASMCs; conditions: IL-6/sIL-6R + hypoxia
# Protocol: as §1
# BrdU growth assay: Cell proliferation was assayed relative to day 0 using a BrdU Cell Proliferation Assay Kit (#6813, Cell Signaling) according to the manufacturer's protocol after incubation for 2 h with BrdU.
structure (smiles),measurement,setting,value
COc1ccc(C#CC2CCCN(C(=O)/C=C/c3cc(OC)c(OC)c(OC)c3)C2=O)cc1 (stereo not shown) [BRD2889],ISCU glutathionylation (α-GSH immunoblot after α-ISCU pulldown),[1],converse reduction of glutathionylation
same,"inflammatory gene transcripts (EDN1, VCAM1, ICAM1)",[2]; IL-6/sIL-6R + hypoxia,normalized this upregulation
same,"C43 genes MID2, BANP, AGTRAP transcripts","[2]; hypoxia 48 hrs, BRD2889 5 uM",unaffected in hypoxia
same,ISCU transcript (RT-qPCR),"[2]; hypoxia 48 hrs, BRD2889 5 uM",fully reversing the hypoxic decrease
same,mTOR transcript (RT-qPCR),"[2]; hypoxia 48 hrs, BRD2889 5 uM",partially reversing the decrease
same,mitochondrial Complex I activity,[3],did not affect
same,proliferation,[4],did not affect
